Consider one molecule from patent US20230124720A1, “APPLICATION OF ACRIDINEDIONE COMPOUND IN PREPARATION OF ANTI-DIABETIC DRUGS” (THE FOURTH MILITARY MEDICAL UNIVERSITY, priority 2020, published 2023).

For orientation: AUC(0-inf) means total exposure, with the tail of the curve extrapolated. Read a low AUC(0-inf) as low exposure. As usually defined, the AUC(0-t) is the area under the concentration-time curve up to a stated or last time point. Higher therefore signals high exposure. As a reminder, the Tmax is the time from dosing to the highest level.

Series [1] concerns STZ-induced T2DM rats. Put plainly: Postprandial blood glucose in STZ-induced T2DM rats. Format: in vivo, rat. The following applies: for reduction in blood glucose compared to the TD group: end of administration. The procedure:
150 male SD rats, housed in cages in a clean constant temperature (23±2° C.) and humidity (55±10%) animal house, were manually adjusted on a daily 12 h/12 h diurnal light cycle with free access to water. After 3 days of adaptive feeding, 150 rats were randomly divided into normal and model groups. The normal (Con, n=15) group of rats remained on raw chow and the model group (n=135) of rats were given high fat high sugar chow. All rats were fed twice daily and the amount of feed was adjusted as needed to ensure adequate feed. After 8 weeks of group feeding, the model group rats were given an intraperitoneal injection of 25 mg/kg STZ solution with a 12 h fast prior to injection. After injection, feeding was continued as in the original method, blood was taken from the tail vein at 72 h for blood glucose measurement, and rats with fasting blood glucose levels ≥11.1 mmol/L on different days were screened for successful artificial induction of T2DM and administered in groups for the next experiment. 135 rats with successful modeling were randomly divided into 9 groups: […] (2) 0.01 mg/kg ADD-16 administration group (ADD I, n=15): daily administration of 0.01 mg/kg ADD-16 solution by gavage; (3) 0.1 mg/kg ADD-16 administration group (ADD II, n=15): daily administration of a 0.1 mg/kg ADD-16 solution by gavage; (4) 1 mg/kg ADD-16 administration group (ADD III, n=15): daily administration of a 1 mg/kg ADD-16 solution by gavage; (5) 3 mg/kg ADD-16 administration group (ADD IV, n=15): daily administration of a 3 mg/kg ADD-16 solution by gavage; (6) 10 mg/kg ADD-16 administration group (ADD V, n=15): daily administration of a 10 mg/kg ADD-16 solution by gavage; (7) 50 mg/kg ADD-16 administration group (ADD VI, n=15): daily administration of a 50 mg/kg ADD-16 solution by gavage; […] (9) Sitagliptin control group (ST, n=15): daily administration of a 6 mg/kg sitagliptin solution by gavage. […] Relevant indicators of lipid metabolism were measured after the end of the study.

Series [2] has as its system STZ-induced T2DM rats. The series can be described thus: Serum lipid metabolism indicators in T2DM rats. Format: in vivo, rat. The procedure:
150 male SD rats, housed in cages in a clean constant temperature (23±2° C.) and humidity (55±10%) animal house, were manually adjusted on a daily 12 h/12 h diurnal light cycle with free access to water. After 3 days of adaptive feeding, 150 rats were randomly divided into normal and model groups. The normal (Con, n=15) group of rats remained on raw chow and the model group (n=135) of rats were given high fat high sugar chow. All rats were fed twice daily and the amount of feed was adjusted as needed to ensure adequate feed. After 8 weeks of group feeding, the model group rats were given an intraperitoneal injection of 25 mg/kg STZ solution with a 12 h fast prior to injection. After injection, feeding was continued as in the original method, blood was taken from the tail vein at 72 h for blood glucose measurement, and rats with fasting blood glucose levels ≥11.1 mmol/L on different days were screened for successful artificial induction of T2DM and administered in groups for the next experiment. 135 rats with successful modeling were randomly divided into 9 groups: […] […] Relevant indicators of lipid metabolism were measured after the end of the study.

Series [3] can be described thus: Plasma kinetics after single oral administration in SD rats (LC-MS/MS). Format: in vivo, rat. The following applies: single oral 10 mg/kg. As to the method: Eight healthy male SD rats, weighing 200-220 g, were housed in a clean animal room maintained at constant temperature (23±2° C.) and humidity (55±10%) with a 12 h/12 h artificial light cycle with free access to food and water and conditioned for 3 days prior to the experiment. All rats were fasted from water for 12 h prior to the experiment, and after oral administration of an ADD-16 solution (10 mg/kg) to each rat, and blood was taken at the orbital site at 5, 10, 15, 30, 45, 60, 120, 240, 360, 720, 1440 min. The blood was immediately fed into heparinized centrifuge tubes at 4° C., 3000 rpm/min, centrifuged for 10 min, and the supernatant plasma was carefully aspirated and stored at −80° C. Assays were performed by natural thawing at room temperature and plasma sample pre-treatment procedures were followed to determine plasma concentrations in rats following a single dose using the established LC-MS/MS method.

The test system of the next series is GPR40. The series can be described thus: Insulin secretion in MIN6 cells with GPR40 inhibitor GW1100. Conditions: 10 μmol/L GW1100 + 10 μmol/L ADD-16, 24 h. Format: cell-based, mouse. As to the method: MIN6 cells were seeded in 24-well plates and cultured as described in step 2.1 to a cell confluency of more than 80% and administrated in the following groups, with 12 replicates per group: (1) normal control group (Con): cultured with blank 1640 medium; (2) GW9508 group: 1 μmol/L GW9508 intervention for 24 h; (3) GW1100 group: 10 μmol/L GW1100 intervention for 24 h; (4) ADD-16 group (ADD): 10 μmol/L ADD-16 intervention for 24 h; (5) GW1100+GW9508 group: 10 μmol/L GW1100+1 μmol/L GW9508 intervention for 24 h; (6) GW1100+ADD-16 group: 10 μmol/L GW1100+10 μmol/LADD-16 intervention for 24 h. After the group administration, the medium was aspirated and washed 2 times with a KRB buffer without sugar, followed by the addition of the KRB buffer without sugar. After incubation at 37° C. for 30 min, the buffer was aspirated and each group was divided into two, i.e., 6 replicates for each group, and KRB buffers containing 2.8 mmol/L and 16.7 mmol/L glucose was added respectively. After incubation at 37° C. for 1 h, all the medium in the wells was aspirated and centrifuged at 2000 rmp/min for 20 min, and the supernatant was collected and stored at −20° C. The insulin content was measured for each group.

The test system of another series is MIN6 cells. The series can be described thus: Western Blot / immunofluorescence of insulin signaling related molecules in insulin-resistant MIN6 cells. Format: cell-based, mouse. As to the method: MIN6 cells were seeded in culture dishes at the appropriate density and cultured as described in step 2.1 to a confluency of about 80%. Cells were divided into the following 5 groups: (1) normal control group (Con): cultured with blank 1640 medium; (2) insulin resistance model panel (IR): treatment with 0.125 mmol/L PA for 24 h to induce establishment of a MIN6 cell insulin resistance model; (3) 3 μmol/L ADD-16 administration group (ADD I): 3 μmol/L ADD-16 intervention was given for 24 h after successful establishment of the insulin resistance model; (4) 10 μmol/L ADD-16 administration group (ADD II): 10 μmol/L ADD-16 intervention was given for 24 h after successful establishment of the insulin resistance model; (5) TAK875 control group (TAK875): 10 μmol/L TAK875 was administered as a positive control drug intervention for 24 h after successful establishment of the insulin resistance model. At the end of the group administration, groups of cells were harvested for WB or IF experiments.
For orientation: A western blot detects proteins with antibodies after separation by electrophoresis.

For series [4] the following is noted: n = 6.

Turning to `CC1(C)CC(=O)C2=C(C1)NC1=C(C(=O)CC(C)(C)C1)C2c1ccc(OCc2ccc(C(=O)O)cc2)c(Br)c1` [ADD-16], in the series on STZ-induced T2DM rats [1] (ADD IV group, 3 mg/kg daily by gavage), the “reduction in blood glucose compared to the TD group” value (“reduction in blood glucose” for short) is recorded as 55.0%. Moreover, the “reduction in blood glucose” value in the series with STZ-induced T2DM rats [1] (ADD V group, 10 mg/kg daily by gavage) is reported as 56.8%. Besides, the “reduction in blood glucose” value in the series on STZ-induced T2DM rats [1] (ADD VI group, 50 mg/kg daily by gavage) is 56.2%. Also, in the series with STZ-induced T2DM rats [1] (T2DM rats, 3, 10, 50 mg/kg), the “hypoglycemic effect (in words)” value was “significant hypoglycemic effect”. Moreover, the “TG, LDL and HDL levels, 10 mg/kg against 3 mg/kg (in words)” value in the series with STZ-induced T2DM rats [2] (ADD V (10 mg/kg) group) is “significantly lower than ADD IV (3 mg/kg) group rats”. Also, in the series with STZ-induced T2DM rats [2] (four weeks after administration, ADD-16: ADD III-ADD VI groups (1-50 mg/kg), P<0.05), the “serum FFA, TC, TG, LDL and HDL levels (in words)” value was “significantly decreased”. The CL/F in series [3] (male, SD, rat, plasma, po, 10 mg/kg, plasma, n = 8, read-out: CLz/F (clearance) (converted)) is approximately 0.15 mL/min/kg. In addition, in series [3] (male, SD, rat, plasma, po, 10 mg/kg, plasma, n = 8, read-out: Cmax (plasma concentration maximum)), the Cmax was approximately 395 ng/mL. Also, the Vd/F in series [3] (male, SD, rat, plasma, po, 10 mg/kg, plasma, n = 8, read-out: Vz/F (apparent volume of distribution)) was approximately 0.36 L/kg. Further, the half-life in series [3] (male, SD, rat, plasma, po, 10 mg/kg, plasma, n = 8, read-out: t1/2z (half-life) (converted)) is approximately 30.2 h. In series [3] (male, SD, rat, plasma, n = 8), the AUC(0-inf) was 2420 ± 527 ng·h/mL, the AUC(0-t) is 1130 ± 35.7 ng·h/mL and the Tmax came to 0.5 h. Moreover, the MRT last in series [3] (male, SD, rat, plasma, n = 8, read-out: MRT(0-t)) is 8.8 ± 0.4 h. The MRT inf in series [3] (male, SD, rat, plasma, n = 8, read-out: MRT(0-∞)) turned out to be 37.5 ± 9.2 h. In addition, in series [3], the “time of maximum blood concentration” value is reported as 30 min. Also, in series [3] (plasma, n = 8), the Cz is recorded as 29.8 ± 10.3 ng/mL, the “VRT(0-t)” value is on record as 55.2 ± 3.0 h^2 and the “VRT(0-∞)” value was determined as 1908.2 ± 835.5 h^2. Besides, in the series with GPR40, the “insulin secretion in GW1100-treated MIN6 cells (in words)” value was “increase insulin secretion in MIN6 cells treated with the GPR40 inhibitor GW1100”. The “GPR40 expression, immunofluorescence staining (in words)” value in the series on MIN6 cells (MIN6 cells) was “upregulate GPR40 expression”. In the series with MIN6 cells (insulin-resistant MIN6 cells, 24 h, P<0.001), the “expression of insulin signaling-related molecules, Western Blot (in words)” value was “upregulate GPR40, PGC-1α, P-P38, P-EP300, PPARγ, P-AKT, PI3K, IRS1 and GLUT4 expression”. The LD50 in series [4] stood at 123.2 µmol/L.
